Earlier results in publication PMC2965246 (Nucleic Acids Research, 2010).

Test system: GRPR
Conditions: reported value

Q: With bombesin [BBN] as the substance, how does the “binding affinity to the GRPR” value read?
A: 79 nM
